Experimental data: publication PMC2650251 (Organic letters, 2008)

Biological target: T1, PTP1B (Homo sapiens, UniProt P18031)
T1 sequence (P18031 1-435): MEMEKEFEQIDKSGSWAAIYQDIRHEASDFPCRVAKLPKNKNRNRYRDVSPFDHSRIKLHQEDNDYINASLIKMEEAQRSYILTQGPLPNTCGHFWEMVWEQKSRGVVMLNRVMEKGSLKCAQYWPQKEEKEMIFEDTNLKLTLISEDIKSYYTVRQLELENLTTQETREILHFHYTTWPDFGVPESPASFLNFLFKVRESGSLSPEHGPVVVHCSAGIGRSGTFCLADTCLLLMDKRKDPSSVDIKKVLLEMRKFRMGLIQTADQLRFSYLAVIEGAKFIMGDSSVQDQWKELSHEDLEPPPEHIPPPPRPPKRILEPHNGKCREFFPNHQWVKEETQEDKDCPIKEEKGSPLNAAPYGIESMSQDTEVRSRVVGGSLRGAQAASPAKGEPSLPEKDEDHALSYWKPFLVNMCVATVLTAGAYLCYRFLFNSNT
Experiment: Kinetic constants of pY peptides against PTP1B
Assay type: biochemical
Settings: pH 7.4, peptide as substrate

| Molecule | Km [µM] | kcat [s⁻¹] | kcat/KM [M⁻¹ s⁻¹] |
| --- | --- | --- | --- |
| DDTF2YDpYAA-NH2 [Peptide 6] | 13 ± 3 | 36 ± 2 | 2.7e+06 |
| DDTYDpYAA-NH2 [Peptide 7] | 14 ± 2 | 33 ± 1 | 2.3e+06 |
| DNLF2YpYWD-NH2 [Peptide 4] | 3.6 ± 0.4 | 36 ± 1 | 1e+07 |
| REYEFpYAA-NH2 [Peptide 9] | 6 ± 0.7 | 33 ± 1 | 5.4e+06 |

Tested on: not given
Experiment: not given
Settings: cited from earlier work

| Molecule | side chain pKa |
| --- | --- |
| N[C@@H](Cc1cc(F)c(O)c(F)c1)C(=O)O [Compound 1, 3,5-difluorotyrosine] | 7.2 |
